Measured values taken from US20260250426A1, “AMPHIPHILIC CELLULOSE DERIVATIVES, METHODS OF MAKING, AND USES THEREOF” (Virginia Tech Intellectual Properties, Inc., priority 2022, published 2026).

Assay: Polymer solubility in pH 6.8 buffer (visual inspection)
Method: A general workflow for evaluating cellulose ester derivatives for ASD applications can include evaluating polymer solubility, nucleation time, and surface tension. Polymer solubility was evaluated by examining solubility in pH 6.8 buffer and organic solvents. Nucleation induction time was measured using 9 different polymers and 3 model therapeutic compounds. Surface tension was determined by correlating surface tension and induction time.

Substance: CA320S Glutarate [CA320GA]
- Water solubility (in words): water-soluble
